Molecules are shown by their SMILES.

What is called surface tension is the force per length acting along the surface.

Data set [1] in a line: Surface tension of aqueous solution. Format: physicochemical.
Data set [2] in a line: Evaluation of solubility of poorly water-soluble alkane diol. In kind it is physicochemical. Particulars: for Ability to dissolve 1,2-octanediol: two-component aqueous alcohol solution with 10% by weight 1,2-octanediol and 10% by weight 1,2-hexanediol, FIG. 1. Here is the method: An aqueous solution containing 10% by weight of 1,2-octanediol was prepared using 1,2-octanediol as a poorly water-soluble alkane diol.
Five alcohol solvents, 1,6-hexanediol (hereinafter referred to as 1,6-HED), 3-methyl-1,5-pentanediol (hereinafter referred to as 3 MPED), 1,5-pentanediol (hereinafter referred to as 1,5-PED), 1,2-hexanediol (hereinafter referred to as HED), and 2,2′-dimethylpropanediol (hereinafter referred to as 2 MPRD) were added to 10 g of the aqueous solution until the aqueous solution became transparent.
In place of the aqueous solution described above, an aqueous solution that contains 10% by weight of 1,2-octanediol as the poorly water-soluble alkane diol and 10% by weight of 1,2-hexanediol as the water-soluble 1,2-alkane diol was prepared, and the alcohol solvents were added to the aqueous solution until the aqueous solution became transparent, as described above.

Consider `CC(CO)CO` [2-methyl-1,3-propanediol], for which the surface tension in data set [1] (10% aqueous solution) turned out to be 57.5 mN/m.

Turning to `CC(CCO)CCO` [3 MPED, 3-methyl-1,5-pentanediol], the “Ability to dissolve 1,2-octanediol” value in data set [2] is “higher ability to dissolve 1,2-octanediol than the addition of HED alone”.

As to `CC(C)(CO)CO` [2 MPRD, 2,2′-dimethylpropanediol], in data set [2], the “Ability to dissolve 1,2-octanediol” value was “higher ability to dissolve 1,2-octanediol than the addition of HED alone”.

Take `OCCCCCCO` [1,6-HED, 1,6-hexanediol]: in data set [2], the “Ability to dissolve 1,2-octanediol” value is recorded as “higher ability to dissolve 1,2-octanediol than the addition of HED alone”.

As to `CC(CCO)CCO` [3-methyl-1,5-butanediol], in data set [1] (10% aqueous solution), the surface tension is recorded as 45.8 mN/m.

Take `CC(C)(C)C(O)CO` (stereo not shown) [3,3-dimethyl-1,2-butanediol]: the surface tension in data set [1] (15% aqueous solution) turned out to be 26.1 mN/m.

In turn, `CC(C)CC(O)CO` (stereo not shown) [4-methyl 1,2-pentanediol] came in with a surface tension in data set [1] (15% aqueous solution) of 25.4 mN/m.

As for `CCCCCCC(O)CO` (stereo not shown) [1,2-octanediol], in data set [2] (aqueous solution containing 10% by weight of 1,2-octanediol), the “Solubility of 1,2-octanediol in water” value was “incompletely dissolved”.

Consider `OCCCCCO` [1,5-PED, 1,5-pentanediol], for which the “Ability to dissolve 1,2-octanediol” value in data set [2] is given as “higher ability to dissolve 1,2-octanediol than the addition of HED alone”.

Take `CCCCC(O)CO` (stereo not shown) [1,2-hexanediol]: in data set [1] (15% aqueous solution), the surface tension amounted to 26.7 mN/m.

The values are drawn from patent US7955425B2, “Ink composition for ink jet recording” (Seiko Epson Corporation, priority 2008, dated 2011).
